Results taken from PMC10107996, “Release of hepatitis B virions is positively regulated by glucose‐regulated protein 78 through direct interaction with preS1” (Journal of Medical Virology, 2022).
“Also recorded” adds a separate entry of the source. No end group written: not given here.

B1: GST-preS1-p2 (residues 25-90) (domain or fragment)
chain: FPDHQLDPAFGANSNNPDWDFNPNKDHWPEANQVGAGAFGPGFTPPHGGLLGWSPQAQGILTTLPA
modifications: also: GST fusion
B2: pep59 (70-QGIMQTVPAN-80) (peptide)
peptide: QGIMQTVPAN
notes: source: designed hydrophobic peptide of preS1
B3: GST-preS1-p3 (residues 66-119) (domain or fragment)
chain: GFTPPHGGLLGWSPQAQGILTTLPAAPPPASTNRQSGRQPTPISPPLRDSHPQA
modifications: also: GST fusion
B4: pep56 (19-DPAFGANSL-29) (peptide)
peptide: DPAFGANSL
notes: also called pepp56; source: designed hydrophobic peptide of preS1

Tests used:
recombinant GRP78 = target: T1, recombinant GRP78 (Homo sapiens, UniProt P11021); test: Isothermal titration calorimetry (ITC) with recombinant GRP78; assay type: binding
T1 construct: His; made in house; host or cells: Escherichia coli BL21
T1 sequence (P11021 19-654): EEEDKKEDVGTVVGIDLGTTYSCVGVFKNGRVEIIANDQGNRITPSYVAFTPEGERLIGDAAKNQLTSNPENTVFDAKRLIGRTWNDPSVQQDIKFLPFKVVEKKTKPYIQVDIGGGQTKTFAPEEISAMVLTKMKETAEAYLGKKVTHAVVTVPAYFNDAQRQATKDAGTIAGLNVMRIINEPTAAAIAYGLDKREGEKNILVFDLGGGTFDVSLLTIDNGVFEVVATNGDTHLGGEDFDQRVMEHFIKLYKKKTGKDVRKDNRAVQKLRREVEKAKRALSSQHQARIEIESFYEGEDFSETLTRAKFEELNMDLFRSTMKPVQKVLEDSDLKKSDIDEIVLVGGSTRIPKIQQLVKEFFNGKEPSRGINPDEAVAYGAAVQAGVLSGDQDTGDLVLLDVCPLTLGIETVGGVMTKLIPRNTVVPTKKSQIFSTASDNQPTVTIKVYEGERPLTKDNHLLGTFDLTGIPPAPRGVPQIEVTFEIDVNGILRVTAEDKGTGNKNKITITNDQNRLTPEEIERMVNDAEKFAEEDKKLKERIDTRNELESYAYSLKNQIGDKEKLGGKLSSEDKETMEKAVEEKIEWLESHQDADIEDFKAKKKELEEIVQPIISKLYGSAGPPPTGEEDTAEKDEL
Protocol: Additionally, we collected purified recombinant GRP78 protein (Supporting Information: Figure S2) and HBV‐enveloped particles from the cell supernatant, followed by separation by ultracentrifugation at 4°C for isothermal titration calorimetry (ITC) experiments. […] These findings confirmed the ability of HBV to promote GRP78 expression and identified that GRP78 directly interacts with preS1 and HBV‐enveloped particles.
Affinity constants under equilibrium (Ka) were obtained using a Nano ITC instrument. GRP78 protein solution (300 µL) was titrated with repeated injections of 40 µL solution until saturation at 25 °C. Nano Analyze software was used for the integration of heat signals and nonlinear regression analysis of the data.

[1] = test system: HBV‐enveloped particle release from HepG2.2.15 cells; test: HBV-enveloped particle release and viral DNA content, particle gel assay and qPCR, HepG2.2.15 cells; assay type: cell-based, hepatitis B virus; conditions: for inhibition of GRP78-enhanced enveloped‐particle release and viral DNA content: GRP78‐overexpressing HepG2.2.15 cells
Protocol: (§1) HBV virions were identified by particle gel assay.[25] HBV‐producing cells were cultured, followed by harvesting of the culture medium. Cell supernatant was added to 35% PEG8000 and shaken at 4°C for >2 h. The viral particles were dissolved in TNE buffer, incubated overnight at 4°C, and subjected to agarose gel electrophoresis. The samples were transferred to a nitrocellulose membranes, treated with methanol for 30 min, blocked with 5% nonfat milk, and incubated with anti‐preS1 (for enveloped particles) or anti‐HBc (for capsid particles) antibodies for 1 h at 20°C. Following incubation with an antimouse secondary antibody (1:10,000) at 4°C overnight, the membrane was visualized using the an enhanced chemiluminescence western blot detection kit (Beyotime Biotech).

[2] = test system: HBV‐enveloped particle release from HepAD38 cells; test: HBV-enveloped particle release, particle gel assay, HepAD38 cells; assay type: cell-based, hepatitis B virus
Protocol: as §1

[3] = target: T2, purified recombinant GRP78 protein (human, UniProt P11021 19-654); test: MST; purified truncated GST-preS1 proteins with GRP78; conditions: both partners purified
T2 construct: source: recombinant, purified
T2 sequence (P11021 19-654): as above

[4] = target: T2, purified recombinant GRP78 protein; test: ITC; recombinant GRP78 with preS1 peptides; conditions: both partners purified
[5] = synthesized peptide and recombinant GRP78, 25 °C

Row | Molecule | N (sites) (recombinant GRP78; [5]) | △H (recombinant GRP78; [5]) | further results
1 | FHSHHNRPMKSP [GBP63, phage-display 12-mer peptide […]] | 0.248±3.22 sites | 8.83 ± 119 kcal/mol | 
2 | GSWNTFRAQPTI [GBP64, phage-display 12-mer peptide […]] | 2.88±0.501 sites | 0.486 ± 0.186 kcal/mol | 
3 | LTPHKHHKHLHA [GBP65] | 10.0±1.05 sites | 2.58 ± 0.647 kcal/mol | 
4 | MKAHHSQLYPRH [GBP66, phage-display 12-mer peptide […]] | 10.0±2.38 sites | 1.55 ± 0.647 kcal/mol | 
5 | QPTPISPPLRN [pep60, hydrophobic preS1 peptide 91‐[…]‐102] |  |  | interaction with GRP78 in words (recombinant GRP78; 25 °C): weak interaction; inhibition of GRP78-enhanced enveloped‐particle release and viral DNA content ([1]; n = 3): minimal effects
6 | SNIGALQFLPPP [GBP67, phage-display 12-mer peptide […]] | negative | negative | KD (recombinant GRP78; [5]): negative
7 | VTTVGMPNKSFF [GBP68] | 5.79±0.738 sites | 3.49 ± 0.881 kcal/mol | inhibition of enveloped‐particle release [2]: dose‐dependent manner; effect on abundance of cytoplasmic viral particles and core particle release ([1]; HepG2.2.15 and HepAD38 cells, particle gel assay with anti‐HBcAg and anti‐preS1 antibodies): negligible effects; inhibitory effect on HBV‐enveloped particle release and viral DNA content in supernatant ([1]; HepG2.2.15 cells, particle gel assay with anti‐preS1 antibody and qPCR, n = 3): significantly stronger inhibitory effect; also recorded: dose‐dependent manner
8 | WDLAWMFRLPVG [pep415, reference compound] |  |  | inhibition of GRP78-enhanced enveloped‐particle release and viral DNA content ([1]; n = 3): inhibited
9 | B1 |  |  | Kd [3]: 1200 nM
10 | B2 |  |  | Kd [4]: 10.6 nM
11 | B3 |  |  | Kd [3]: 431 nM
12 | B4 |  |  | Kd [4]: 6.59 nM
